Experimental data from patent US8034940B2, “Modulators of glucocorticoid receptor, AP-1, and/or NF-κB activity and use thereof” (Bristol-Myers Squibb Company, priority 2006, dated 2011).
pKi: −log10 of the molar value. Where two headings read alike, the source gives them in different places.

Assays:
[1] = target: T1, human full-length glucocorticoid receptor (Homo sapiens, UniProt P04150); experiment: Glucocorticoid Receptor Binding Assay (I), fluorescence polarization, Fluormone GS Red; design: purified human recombinant full-length glucocorticoid receptor; purchased Invitrogen Part #2893; conditions: for Ki: GR Binding Assay (I), read-out: GR (Ki, nM) (GR Binding Assay (I))
T1 sequence (P04150 1-777): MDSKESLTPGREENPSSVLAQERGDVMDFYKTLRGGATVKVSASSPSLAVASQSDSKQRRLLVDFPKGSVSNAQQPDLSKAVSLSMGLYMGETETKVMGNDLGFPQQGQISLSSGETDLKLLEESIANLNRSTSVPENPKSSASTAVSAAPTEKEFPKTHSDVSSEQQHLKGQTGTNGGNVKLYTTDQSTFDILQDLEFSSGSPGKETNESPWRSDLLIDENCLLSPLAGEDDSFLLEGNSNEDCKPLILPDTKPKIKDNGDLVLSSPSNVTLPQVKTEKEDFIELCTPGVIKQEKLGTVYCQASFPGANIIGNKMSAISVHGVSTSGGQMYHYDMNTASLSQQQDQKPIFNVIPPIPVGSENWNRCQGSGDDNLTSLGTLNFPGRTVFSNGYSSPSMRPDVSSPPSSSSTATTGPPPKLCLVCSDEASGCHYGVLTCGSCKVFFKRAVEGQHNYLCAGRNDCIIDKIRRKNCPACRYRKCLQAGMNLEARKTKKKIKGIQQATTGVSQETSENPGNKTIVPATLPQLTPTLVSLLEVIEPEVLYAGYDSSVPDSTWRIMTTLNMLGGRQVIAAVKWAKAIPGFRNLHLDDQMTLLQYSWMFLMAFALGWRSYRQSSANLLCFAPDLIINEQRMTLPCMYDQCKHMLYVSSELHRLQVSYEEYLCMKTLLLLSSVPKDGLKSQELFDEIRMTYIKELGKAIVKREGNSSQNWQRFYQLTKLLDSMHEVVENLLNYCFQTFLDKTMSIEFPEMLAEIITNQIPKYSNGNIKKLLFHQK
Method: Glucocorticoid Receptor Binding Assay (I)^a
Briefly, purified human recombinant full-length glucocorticoid receptor (2 nM) was mixed with fluorescently labeled glucocorticoid (1 nM Fluormone GS Red) in the presence or absence of test compound. After two hour incubation at room temperature in the dark, the fluorescence polarization (FP) of the samples was measured. […] Test compounds were analyzed in the concentration range from 8.5E-05 μM to 5 μM.

[2] = system: AP-1 induced transcriptional activity; experiment: Cellular Transrepressional Assay (AP-1 luciferase reporter, PMA-activated A549 cells); format: cell-based; conditions: Homo sapiens; for Emax: A549, 7 h, maximum inhibition, Cellular Transrepression Assay, read-out: AP-1 Max % inh (Cellular Transrepression Assay); for EC50: A549, Cellular Transrepression Assay
Outline: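 Compounds tested from 0.1 nM to 40 μM during a 7 h PMA (10 ng/ml) stimulation of A549 cells stably transfected with 7× AP-1 sites driving luciferase. Repression expressed as % reduction of PMA-induced luminescence; EC50 by curve fitting.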

Row | Compound | Ki [1] | EC50 [2] | Emax [2] | also measured
1 | CC(C)(C(=O)Nc1nncs1)C1c2cccnc2Oc2c(F)cccc21 (centres unmarked) [Example 72] | > 1150 nM |  |  | 
2 | CC(C)(C(=O)Nc1nncs1)C1c2ccccc2Oc2cc(-c3ccc(C(=O)O)cn3)ccc21 (centres unmarked) [Example 101] | 19.8 nM |  |  | 
3 | CC(C)(C(=O)Nc1nncs1)C1c2ccccc2Oc2cc(-c3ccc(C(=O)O)s3)ccc21 (centres unmarked) [Example 103] | 6.06 nM |  |  | 
4 | CN(C)C(=O)c1ccc(-c2ccc3c(c2)Oc2ccccc2C3C(C)(C)C(=O)Nc2nncs2)s1 (centres unmarked) [Example 104] | 4.5 nM |  |  | 
5 | CC(C)(C(=O)Nc1nncs1)C1c2ccccc2Oc2cc(-c3ncc(C(=O)O)cn3)ccc21 (centres unmarked) [Example 108] | 13.6 nM |  |  | 
6 | CC(C)(C(=O)Nc1nncs1)C1c2ccccc2Oc2cc(C(N)=O)ccc21 (centres unmarked) [Example 113] | 62.6 nM |  |  | 
7 | CC(C)(C(=O)Nc1nncs1)C1c2ccccc2Oc2cc(C(=O)O)ccc21 (centres unmarked) [Example 114] | 49.9 nM |  |  | 
8 | CC(C)(C(=O)Nc1nncs1)C1c2ccccc2Oc2cc(C(=O)N3CCOCC3)ccc21 (centres unmarked) [Example 116] | 346 nM |  |  | 
9 | CNC(=O)c1ccc2c(c1)Oc1ccccc1C2C(C)(C)C(=O)Nc1nncs1 (centres unmarked) [Example 117] | 123 nM |  |  | 
10 | CC(C)(C(=O)Nc1nncs1)C1c2ccccc2Oc2cc(C(=O)NCc3ccccc3)ccc21 (centres unmarked) [Example 118] | 76.6 nM |  |  | 
11 | CC(C)(C(=O)Nc1nncs1)C1c2ccccc2Oc2cc(NC(=O)NCc3ccccc3)ccc21 (centres unmarked) [Example 122] | 80 nM |  |  | 
12 | CC(C)(C(=O)Nc1nncs1)C1c2ccccc2Oc2cc(NC(=O)Nc3nccs3)ccc21 (centres unmarked) [Example 123] | 17.8 nM |  |  | 
13 | CC(C)(C(=O)Nc1nncs1)C1c2ccccc2Oc2cc(NC(=O)NC3CC3)ccc21 (centres unmarked) [Example 124] | 65.1 nM |  |  | 
14 | CN(C)C(=O)c1ccc(-c2ccc3c(n2)Oc2ccccc2[C@H]3C(C)(C)C(=O)Nc2nncs2)cc1 [Example 168] | 486 nM |  |  | 
15 | CC(C)(C(=O)Nc1nncs1)[C@H]1c2ccccc2Oc2nc(-c3ccc(C(=O)O)cc3)ccc21 [Example 174] |  |  |  | pKi [1]: 7.99
16 | CC(C)(C(=O)Nc1nncs1)[C@H]1c2ccccc2Oc2nc(-c3ccc(C(=O)O)c(F)c3)ccc21 [Example 213] | 7.95 nM |  |  | 
17 | CC(C)(C(=O)Nc1nncs1)[C@H]1c2ccccc2Oc2nc(-c3ccc(S(C)(=O)=O)cc3)ccc21 [Example 214] | 1.37 nM |  |  | 
18 | CC(C)(C(=O)Nc1nncs1)[C@H]1c2ccccc2Oc2nc(-c3ccc(C(N)=O)cc3)ccc21 [Example 215] |  |  |  | pKi [1]: 8.60

Row | Compound | Ki [1] | EC50 [2] | Emax [2] | also measured
19 | CC(C)(C(=O)Nc1nncs1)[C@H]1c2ccccc2Oc2nc(-c3cc4ccccc4o3)ccc21 [Example 216] | 4.14 nM |  |  | 
20 | COc1ccc(-c2ccc3c(n2)Oc2ccccc2[C@@H]3C(C)(C)C(=O)Nc2nncs2)cn1 [Example 218] | 1.24 nM |  |  | 
21 | Cc1cc(-c2ccc3c(n2)Oc2ccccc2[C@@H]3C(C)(C)C(=O)Nc2nncs2)ccc1OC(C)C [Example 224] | 8.06 nM |  |  | 
22 | CN(C)S(=O)(=O)c1ccc(-c2ccc3c(n2)Oc2ccccc2[C@@H]3C(C)(C)C(=O)Nc2nncs2)cc1 [Example 232] | 4.57 nM |  |  | 
23 | CC(C)(C(=O)Nc1nncs1)[C@H]1c2ccccc2Oc2nc(-c3ccc(S(=O)(=O)N4CCOCC4)cc3)ccc21 [Example 233] | 11.3 nM |  |  | 
24 | CC(C)(C(=O)Nc1nncs1)[C@H]1c2ccccc2Oc2nc(-c3ccc(S(=O)(=O)NC4CC4)cc3)ccc21 [Example 235] | 4.85 nM |  |  | 
25 | CC(C)NS(=O)(=O)c1ccc(-c2ccc3c(n2)Oc2ccccc2[C@@H]3C(C)(C)C(=O)Nc2nncs2)cc1 [Example 236] | 9.44 nM |  |  | 
26 | Cc1nnc(-c2ccc(-c3ccc4c(n3)Oc3ccccc3[C@@H]4C(C)(C)C(=O)Nc3nncs3)cc2)o1 [Example 237] | 6.04 nM |  |  | 
27 | CC(C)(C(=O)Nc1nncs1)[C@H]1c2ccccc2Oc2nc(-c3ccc(OC4CCOCC4)c(F)c3)ccc21 [Example 242] | 412 nM |  |  | 
28 | CC(C)(C(=O)Nc1nncs1)[C@H]1c2ccccc2Oc2nc(-c3ccc(OC4CCCCC4)c(F)c3)ccc21 [Example 243] | > 1150 nM |  |  | 
29 | CC(C)(C(=O)Nc1nncs1)[C@H]1c2ccccc2Oc2nc(-c3ccc(OC4CCCC4)c(F)c3)ccc21 [Example 244] | > 1150 nM |  |  | 
30 | CN(C)C(=O)c1ccc(-c2ccc3c(n2)Oc2ccccc2[C@@H]3C(C)(C)C(=O)Nc2nccs2)cc1 [Example 245] | 1.01 nM |  |  | 
31 | CNC(=O)c1ccc(-c2ccc3c(n2)Oc2ccccc2[C@@H]3C(C)(C)C(=O)Nc2nncs2)cc1F [Example 253] |  |  |  | pKi [1]: 8.20
32 | CN(Cc1ccccc1)C(=O)c1ccc(-c2ccc3c(n2)Oc2ccccc2[C@@H]3C(C)(C)C(=O)Nc2nncs2)cc1 [Example 255] | 16.1 nM |  |  | 
33 | Cc1nnc(NC(=O)C(C)(C)[C@H]2c3ccccc3Oc3nc(-c4ccc(OC(C)C)cc4)ccc32)s1 [Example 461] |  | 53.4 nM | 50.8% | 
34 | CC(C)(C(=O)Nc1nncs1)[C@H]1c2ccccc2Oc2nc(-c3ccc(C(=O)N4CCOCC4)s3)ccc21 [Example 463] |  | 45.3 nM | 26.2% | 
35 | CCN(C)C(=O)c1ccc(-c2ccc3c(n2)Oc2ccccc2[C@@H]3C(C)(C)C(=O)Nc2nnc(C)s2)cc1 [Example 464] |  | 18.2 nM | 54% | 

Continued, in another order:

Row | Ki [1] | EC50 [2] | Compound | Emax [2] | also measured
36 | 45 nM |  | CC(C(=O)Nc1nncs1)C1c2ccccc2Oc2nc(-c3ccc(C(=O)N(C)C)cc3)ccc21 (mixture of isomers) [Example 482] |  | 
37 | > 1150 nM |  | O=C(c1ccc(-c2ccc3c(n2)Oc2ccccc2C3C2(C(=O)Nc3nncs3)CCC2)cc1)N1CCOCC1 (single isomer, unassigned) [Example 487] |  | 
38 |  | 16.6 nM | Cc1nnc(NC(=O)C(C)(C)[C@H]2c3ccccc3Oc3nc(-c4ccc(C(=O)N5CCOCC5)cc4)ccc32)s1 [Example 465] | 61.5% | 
39 |  | 28.2 nM | Cc1nnc(NC(=O)C(C)(C)[C@H]2c3ccccc3Oc3nc(-c4ccc(C(=O)N5CCC(F)(F)C5)cc4)ccc32)s1 [Example 466] | 56.1% | 
40 |  | 15 nM | CCN(C)C(=O)c1ccc(-c2ccc3c(n2)Oc2ccccc2[C@@H]3C(C)(C)C(=O)Nc2ncns2)cc1 [Example 467] | 57.5% | 
41 |  | 35.4 nM | CC(C)(C(=O)Nc1ncns1)[C@H]1c2ccccc2Oc2nc(-c3ccc(C(=O)N4CCOCC4)c(F)c3)ccc21 [Example 468] | 53.3% | 
42 |  | 24.6 nM | CC(C)(C(=O)Nc1nncs1)[C@H]1c2ccccc2Oc2nc(-c3ccc(CO)s3)ccc21 [Example 470] | 43% | 
43 |  | 63.9 nM | CN(C)C(=O)c1ccc(-c2ccc3c(n2)Oc2ccccc2[C@@H]3C(C)(C)C(=O)Nc2ncns2)cc1 [Example 471] | 52.4% | 
44 |  | 26.9 nM | Cc1nnc(NC(=O)C(C)(C)[C@H]2c3ccccc3Oc3nc(-c4ccc(C(=O)N5CCOCC5)c(F)c4)ccc32)s1 [Example 472] | 47% | 
45 |  | 40.2 nM | Cc1nnc(NC(=O)C(C)(C)[C@H]2c3ccccc3Oc3nc(-c4ccc(C(=O)N5CCOCC5)c(Cl)c4)ccc32)s1 [Example 473] | 52.5% | 
46 |  | 85.4 nM | Cc1nnc(NC(=O)C(C)(C)[C@H]2c3ccccc3Oc3nc(-c4ccc(C(=O)N(C)C)c(F)c4)ccc32)s1 [Example 474] | 37.9% | 
47 |  | 39.8 nM | Cc1nnc(NC(=O)C(C)(C)[C@H]2c3ccccc3Oc3nc(-c4ccc(C(=O)N5CCC(F)(F)C5)c(F)c4)ccc32)s1 [Example 477] | 44.8% | 
48 |  | 16 nM | Cc1nsc(NC(=O)C(C)(C)[C@H]2c3ccccc3Oc3nc(-c4ccc(C(=O)N5CCOCC5)cc4)ccc32)n1 [Example 478] | 41.8% | 
49 |  | 47 nM | CN(C)C(=O)c1ccc(-c2ccc3c(n2)Oc2ccccc2C3C2(C(=O)Nc3nncs3)CCC2)cc1 (centres unmarked) [Example 479] | 44.4% | 
50 |  | 19.3 nM | CN(C)C(=O)c1ccc(-c2ccc3c(n2)Oc2ccccc2C3C2(C(=O)Nc3nncs3)CCCC2)cc1 (centres unmarked) [Example 484] | 29.8% | 
51 |  | 42.4 nM | CN(C)C(=O)c1ccc(-c2ccc3c(n2)Oc2ccccc2C3C2(C(=O)Nc3ncns3)CCCC2)cc1 (centres unmarked) [Example 485] | 38.9% | 
52 |  | 15.8 nM | O=C(c1ccc(-c2ccc3c(n2)Oc2ccccc2C3C2(C(=O)Nc3nncs3)CCC2)cc1)N1CCOCC1 (centres unmarked) [Example 486] | 50.3% | 
53 |  | 42.9 nM | Cc1nnc(NC(=O)C2(C3c4ccccc4Oc4nc(-c5ccc(C(=O)N(C)C)cc5)ccc43)CCC2)s1 (centres unmarked) [Example 488] | 34.5% | 
54 |  | 182 nM | CC(C)(C(=O)Nc1nncs1)C1c2ccccc2Oc2cc(-c3ccc(C(=O)N4CCOCC4)cc3)ncc21 (centres unmarked) [Example 492] | 28.4% | 
